This assay has as its target OfChtI-CAD (Ostrinia furnacalis, UniProt Q2V6H4, E148Q). As to the kind of experiment: isothermal titration calorimetry, single-site model. As to conditions: 50 mM HEPES pH 8.0, 303 K. Type of assay: binding. The text has this: isothermal titration calorimetry, single-site model on OfChtI-CAD

The structures appear in SMILES notation.

Sequence of OfChtI-CAD (Q2V6H4 19-407, stated change not applied): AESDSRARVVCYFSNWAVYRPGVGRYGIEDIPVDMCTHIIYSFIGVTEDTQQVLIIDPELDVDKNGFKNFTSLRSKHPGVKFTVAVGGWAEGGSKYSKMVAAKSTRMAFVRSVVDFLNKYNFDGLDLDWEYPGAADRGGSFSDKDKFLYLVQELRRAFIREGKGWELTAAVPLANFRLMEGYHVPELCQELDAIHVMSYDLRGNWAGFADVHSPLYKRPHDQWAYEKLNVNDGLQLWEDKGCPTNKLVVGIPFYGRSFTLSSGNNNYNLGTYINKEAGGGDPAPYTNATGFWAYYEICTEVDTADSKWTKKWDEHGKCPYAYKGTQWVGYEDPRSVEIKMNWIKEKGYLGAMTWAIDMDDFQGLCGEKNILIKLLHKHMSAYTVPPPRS

Consider `CC(=O)N[C@H]1[C@H](O[C@H]2[C@H](O)[C@@H](NC(C)=O)[C@H](O[C@H]3[C@H](O)[C@@H](NC(C)=O)C(O)O[C@@H]3CO)O[C@@H]2CO)O[C@H](CO)[C@@H](O[C@@H]2O[C@H](CO)[C@@H](O[C@@H]3O[C@H](CO)[C@@H](O)[C@H](O)[C@H]3NC(C)=O)[C@H](O)[C@H]2NC(C)=O)[C@@H]1O` (stereo partly drawn) [(GlcNAc)5], for which binding was characterised by a dissociation constant (Kd) of 2000 ± 200 nM.
To `CC(=O)N[C@H]1[C@H](O[C@H]2[C@H](O)[C@@H](NC(C)=O)[C@H](O[C@H]3[C@H](O)[C@@H](NC(C)=O)C(O)O[C@@H]3CO)O[C@@H]2CO)O[C@H](CO)[C@@H](O[C@@H]2O[C@H](CO)[C@@H](O[C@@H]3O[C@H](CO)[C@@H](O[C@@H]4O[C@H](CO)[C@@H](O)[C@H](O)[C@H]4NC(C)=O)[C@H](O)[C@H]3NC(C)=O)[C@H](O)[C@H]2NC(C)=O)[C@@H]1O` (stereo partly drawn) [(GlcNAc)6, N′,N′′,N′′′,N′′′′,N′′′′′, N′′′′′′-hexaacetylchitohexaose] belongs 480 ± 90 nM.
Take `CC(=O)N[C@H]1[C@H](O[C@H]2[C@H](O)[C@@H](NC(C)=O)C(O)O[C@@H]2CO)O[C@H](CO)[C@@H](O[C@@H]2O[C@H](CO)[C@@H](O[C@@H]3O[C@H](CO)[C@@H](O)[C@H](O)[C@H]3NC(C)=O)[C@H](O)[C@H]2NC(C)=O)[C@@H]1O` (stereo partly drawn) [(GlcNAc)4]: the Kd (in general, a measure of binding affinity in units of concentration) worked out at 11300 ± 1500 nM.

Values taken from PMC3975886, “Structural characteristics of an insect group I chitinase, an enzyme indispensable to moulting” (Acta Crystallographica Section D: Biological Crystallography, 2014).
